# Experimental data reported in PubChem BioAssay (NCI).
# Where “and” joins values, the source holds several entries; their conditions need not be identical. Identical values can stand only once.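 1) Cells in 96-well plates. 2) Compound, 48 h, 5 concentrations. 3) Linear interpolation between surrounding doses. 4) Unreached endpoint = highest concentration. GI50 = concentration required for 50% inhibition of growth. TGI marks complete inhibition of growth.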
# Legend:
# Test in all cases: inhibition of tumour cell growth, NCI panel, 48 h
# MOLT-4 leukemia = test system: MOLT-4 leukemia
# ACHN renal = test system: ACHN renal
# MALME-3M melanoma = test system: MALME-3M melanoma
# SNB-19 CNS = test system: SNB-19 CNS
# HCT-116 colon = test system: HCT-116 colon
# SF-295 CNS = test system: SF-295 CNS
# OVCAR-3 ovarian = test system: OVCAR-3 ovarian
# TK-10 renal = test system: TK-10 renal
# K-562 leukemia = test system: K-562 leukemia
# T-47D breast = test system: T-47D breast
SMILES,TGI (MOLT-4 leukemia),TGI (ACHN renal),TGI (MALME-3M melanoma),TGI (SNB-19 CNS),TGI (HCT-116 colon),TGI (SF-295 CNS),TGI (OVCAR-3 ovarian),TGI (TK-10 renal),TGI (K-562 leukemia),GI50 (MOLT-4 leukemia),GI50 (ACHN renal),GI50 (MALME-3M melanoma),GI50 (SNB-19 CNS),GI50 (T-47D breast),TGI (T-47D breast),GI50 (HCT-116 colon),GI50 (SF-295 CNS),GI50 (OVCAR-3 ovarian),GI50 (TK-10 renal),GI50 (K-562 leukemia)
[O-][n+]1c2cc(CN3CCOCC3)c(CN3CCOCC3)cc2[n+]([O-])c2c(O)cccc21,3.05 µM,26.3 µM,25.3 µM,> 40.8 µM,6.05 µM,2.16 µM,13 µM,> 42 µM,,,,,,,,,,,,
N#CC(C(=O)CCC(=O)Nc1ccc(Cl)c(Cl)c1)c1ccc(Cl)cc1 (configuration not stated),> 100 µM,> 100 µM,> 100 µM,> 100 µM,> 100 µM,> 100 µM,> 100 µM,> 100 µM,90.5 µM,,,,,,,,,,,
O=C(NC1C=Nc2ccccc2NC1=O)c1ccccc1Cl (configuration not stated),54.4 µM,> 100 µM,> 100 µM,> 100 µM,> 100 µM,> 100 µM,> 100 µM,> 100 µM,52.7 µM,,,,,,,,,,,
O=S(=O)(N/N=C/c1ccc(Cl)cc1Cl)c1ccccc1,> 100 µM,> 100 µM,> 100 µM,,> 100 µM,> 100 µM,> 100 µM,> 100 µM,> 100 µM,,,,,,,,,,,
NS(=O)(=O)c1ccc(NC(=O)c2cccc3c(Nc4ccc(S(N)(=O)=O)cc4)c4ccccc4nc23)cc1,39.8 µM,> 100 µM,> 100 µM,> 100 µM,> 100 µM,> 100 µM,35.2 µM,> 100 µM,82.1 µM,,,,,,,,,,,
COc1ccc(/C=N\O[Si](C)(C)C(C)(C)C)cc1O[Si](C)(C)C(C)(C)C,36.5 µM,33.3 µM,37.4 µM,33.3 µM,29.1 µM,30.9 µM,31 µM,36.3 µM,37.2 µM,,,,,,,,,,,
COc1cc2c(cc1OCCCCCn1c3ccccc3c3ccccc31)N=C[C@@H]1CCCN1C2=O,6.11 µM,3.34 µM,4.72 µM,4.04 µM,3.33 µM,6.55 µM,3.57 µM,4.84 µM,,2.15 µM,1.74 µM,2.2 µM,2.05 µM,2.79 µM,9.24 µM,1.65 µM,2.15 µM,1.88 µM,2.25 µM,
c1ccc2c(CN3CCC(C4CCN(Cc5cccc6ccccc56)CC4)CC3)cccc2c1,26.6 µM and 99.1 µM,> 100 µM,4.87 µM and 14.6 µM,> 100 µM,21.1 µM and > 58.2 µM,19.4 µM and 14.2 µM,> 100 µM,42.8 µM and > 31.6 µM,,,,,40.1 µM and > 100 µM,,89.1 µM,7.28 µM and 16.3 µM,,,,
O=c1cc(-c2ccc(O)cc2)oc2cc(O)cc(O)c12,88.4 µM,30.3 µM,88.3 µM,> 100 µM,> 100 µM,83.4 µM,91.9 µM,> 100 µM,> 100 µM,,,,,,,,,,,
CCCCCCCCCCCCCCCCCc1nnc(N)o1,> 100 µM,> 100 µM,> 100 µM,> 100 µM,> 100 µM,> 100 µM,> 100 µM,> 100 µM,> 100 µM,,,,,,,,,,,
O=CN1N=C(c2ccc(Nc3ccnc4cc(Cl)ccc34)cc2)CC1c1ccc(Cl)cc1 (configuration not stated),> 100 µM,> 100 µM,,> 100 µM,> 100 µM,1.08 µM,> 100 µM,> 100 µM,,0.529 µM,1 µM,,1.92 µM,1.56 µM,> 100 µM,0.499 µM,0.274 µM,0.352 µM,9.57 µM,
O=C(O)c1cc(=O)c2cc(C(=O)c3cccs3)c(Cl)c(Cl)c2o1,> 100 µM,> 100 µM,> 100 µM,> 100 µM,,> 100 µM,> 100 µM,> 100 µM,> 100 µM,,,,,,,,,,,
COC1OC(C(C)O)C2OC(C)(C)OC12 (configuration not stated),> 100 µM,> 100 µM,,> 100 µM,> 100 µM,> 100 µM,> 100 µM,> 100 µM,> 100 µM,,,,,,> 100 µM,,,,,
O=C(CC(=O)C1CCOC1=O)C(=O)Nc1ccc(Cl)cc1 (configuration not stated),,> 100 µM,> 100 µM,> 100 µM,> 100 µM,> 100 µM,> 100 µM,> 100 µM,> 100 µM,,,,,,,,,,,
COc1cc2c3cc1Oc1c(OC)c(OC)cc4c1C(Cc1ccc(cc1)Oc1cc(ccc1O)CC3N(C)CC2)N(C)CC4 (configuration not stated),30.8 µM and 36.8 µM,46.1 µM and 15.8 µM,27 µM and 26 µM,72.7 µM and 24.7 µM,21 µM and > 100 µM,28.9 µM and 21.4 µM,29.1 µM and 62.8 µM,45 µM and 25.9 µM,,,14.5 µM and 4.72 µM,,28.6 µM and 12 µM,,26.8 µM,,15.4 µM and 7.68 µM,,,
COc1ccc(C=C2C(=O)NC(=O)NC2=O)cc1OCc1ccccc1,,,,,,,39.3 mg/L,,,,36.9 mg/L,54.5 mg/L,23.3 mg/L,,,40.5 mg/L,32.5 mg/L,17 mg/L,,30.8 mg/L
NC(=O)N/N=C(\CCC(=O)N(Cc1ccccc1)Cc1ccccc1)CC(=O)c1ccc(F)cc1,> 100 µM,> 100 µM,> 100 µM,> 100 µM,> 100 µM,> 100 µM,> 100 µM,> 100 µM,> 100 µM,,,,,,,,,,,
COC(=O)c1nc(N)nc(C(=O)OC)c1C(=O)c1ccccc1,> 100 µM,> 100 µM,> 100 µM,> 100 µM,> 100 µM,> 100 µM,> 100 µM,> 100 µM,> 100 µM,,,,,,,,,,,
COC1(Cc2ccccc2)C(=O)c2ccccc2N1C(C)=O (configuration not stated),> 100 µM,> 100 µM,,> 100 µM,> 100 µM,> 100 µM,> 100 µM,,> 100 µM,,,,,,,,,,,
COc1ccc(/C(C#N)=C(/N)SCc2ccccc2Cl)cc1,85.2 µM,> 10 µM,44.7 µM,> 10 µM,32.8 µM,31.5 µM,24.3 µM,94.7 µM,49.5 µM,,,,,,,,,,,
Cc1cc(Cl)ccc1Nc1nc(C(F)(F)F)ccc1C(=O)Nc1cccc(C(F)(F)F)c1,13.3 µM,9.01 µM,9.17 µM,15.8 µM,,13.3 µM,19.1 µM,21 µM,11.2 µM,3.04 µM,2.75 µM,1.97 µM,4.45 µM,4.53 µM,23.8 µM,,3.24 µM,3.52 µM,4.4 µM,2.59 µM
